From publication PMC4393105, “tRNA^Glu Increases the Affinity of Glutamyl-tRNA Synthetase for Its Inhibitor Glutamyl-Sulfamoyl-Adenosine, an Analogue of the Aminoacylation Reaction Intermediate Glutamyl-AMP: Mechanistic and Evolutionary Implications” (PLoS ONE, 2015)
Values joined by “and” are separate entries in the source; they are usually repeats but may differ in a detail not shown here. Equal entries are not always repeated.

Experiments:
[1] = target: T1, E. coli GluRS + E. coli tRNA^Glu (Escherichia coli, UniProt P04805); test: Isothermal titration microcalorimetry of Glu-AMS binding to GluRS in the presence of tRNA^Glu; conditions: for Kd: Kd = 1/Kb
T1 construct: His tag (histidine tag) (C); made in house
Method: (§1) Overproduction and purification of E. coli GluRS were performed as previously described with the following modifications. A C-terminal histidine-tagged GluRS was used instead of the N-terminal tagged one. The overproduction was induced overnight at 30°C with 1 mM IPTG.
(§2) Overproduction and purification of E. coli tRNA^Glu-enriched total tRNA was done as described. […] Saccharomyces cerevisiae tRNA^Phe, used as a negative control, was purchased from Sigma-Aldrich (cat No: R4018).
(§3) The GluRS solution with or without tRNA was dialyzed overnight in a D-tube dialyzer (Novagen) against 2 L of dialysis buffer (50 mM HEPES-KOH, pH 7.2, 10 mM MgCl2) at 4°C with light stirring. The next morning, the dialyzed solution was recovered and the volume adjusted by adding dialysis buffer to obtain the desired concentration (typically 9 μM GluRS and 11 μM tRNA^Glu). This solution was kept on ice until use. Glu-AMS was diluted in the dialysis buffer to obtain a final concentration of 90 μM. All buffers and solutions were degased with stirring under vacuum. The microcalorimetry experiments were carried out in a VP-ITC 100 microcalorimeter (MicroCal, GE Healthcare) using deionized water as an internal reference for all assays. VPViewer ITC 2000 and Origin v 5.0 softwares (Microcal Software, Inc) were used for data collection and analysis, respectively.
To measure the thermodynamic parameters of the interaction between Glu-AMS and GluRS, in the presence and in the absence of tRNA, a solution containing 9 μM GluRS with or without a stoichiometric excess of tRNA^Glu or S. cerevisiae tRNA^Phe (Table 1) was placed in the sample cell of the microcalorimeter. The following conditions were used for all tests: reference power was set at 12 μcal/s and stirring at 300 rpm, the “high” feedback mode and “No check Temp”, “Fast Equil” and “Auto” ITC equilibration options were selected. […] After a first injection of 1 μL over 2 s, a series of 39 injections (7.4 μL over 14.8 s) with 240 s between injections was performed. Injections of Glu-AMS in GluRS alone, GluRS•tRNA^Glu or GluRS•tRNA^Phe, were performed at 30°C (303 K), and done in duplicate. Injections of Glu-AMS in GluRS were also performed at 20°C and 37°C (293 and 310 K): 14 injections (20 μL over 40 s) followed the first injection of 1 μL. Each temperature was tested in duplicate, and in triplicate at 37°C.
(§4) The following nomenclature was used to describe the interaction at equilibrium between Glu-AMS and either GluRS or a GluRS•tRNA complex: GluRS•Glu-AMS↔GluRS+[…] Kd=[GluRS]×[Glu-AMS]/[GluRS•Glu-AMS] 1/Kd=Kb (binding constant, sometimes referred to as Ka).

[2] = target: T2, E. coli GluRS + S. cerevisiae tRNA^Phe (Escherichia coli, UniProt P04805); test: Isothermal titration microcalorimetry of Glu-AMS binding to GluRS in the presence of non-cognate tRNA^Phe; conditions: for Kd: Kd (dissociation constant), Kd = 1/Kb
T2 construct: His tag (histidine tag) (C); made in house
Method: as §1, §2, §3
To measure the thermodynamic parameters of the interaction between Glu-AMS and GluRS, in the presence and in the absence of tRNA, a solution containing 9 μM GluRS with or without a stoichiometric excess of tRNA^Glu or S. cerevisiae tRNA^Phe (Table 1) was placed in the sample cell of the microcalorimeter. The following conditions were used for all tests: reference power was set at 12 μcal/s and stirring at 300 rpm, the “high” feedback mode and “No check Temp”, “Fast Equil” and “Auto” ITC equilibration options were selected. The 90 μM Glu-AMS solution was loaded in the injection syringe. After a first injection of 1 μL over 2 s, a series of 39 injections (7.4 μL over 14.8 s) with 240 s between injections was performed. Injections of Glu-AMS in GluRS alone, GluRS•tRNA^Glu or GluRS•tRNA^Phe, were performed at 30°C (303 K), and done in duplicate. Injections of Glu-AMS in GluRS were also performed at 20°C and 37°C (293 and 310 K): 14 injections (20 μL over 40 s) followed the first injection of 1 μL. Each temperature was tested in duplicate, and in triplicate at 37°C.
as §4

[3] = tested on: Escherichia coli glutamyl-tRNA synthetase (GluRS); design: method as in PMID 15895686; conditions: competitive inhibitor; cited from earlier work
[4] = single ITC run, tRNA^Glu 5.3 µM, 303 K, [ligand] 45 µM, [GluRS] 2.636 µM
[5] = single ITC run, tRNA^Glu 10.6 µM, 303 K, [ligand] 90 µM, [GluRS] 5.792 µM
[6] = with E. coli tRNA^Glu, 30°C, weighted mean of ITC runs
[7] = single ITC run, tRNA^Phe 11.23 µM, 303 K, [ligand] 90 µM, [GluRS] 2.198 µM
[8] = single ITC run, tRNA^Phe 11.23 µM, 303 K, [ligand] 90 µM, [GluRS] 2.434 µM
[9] = with S. cerevisiae tRNA^Phe, 30°C, weighted mean of ITC runs

T2 sequence (P04805 whole entry): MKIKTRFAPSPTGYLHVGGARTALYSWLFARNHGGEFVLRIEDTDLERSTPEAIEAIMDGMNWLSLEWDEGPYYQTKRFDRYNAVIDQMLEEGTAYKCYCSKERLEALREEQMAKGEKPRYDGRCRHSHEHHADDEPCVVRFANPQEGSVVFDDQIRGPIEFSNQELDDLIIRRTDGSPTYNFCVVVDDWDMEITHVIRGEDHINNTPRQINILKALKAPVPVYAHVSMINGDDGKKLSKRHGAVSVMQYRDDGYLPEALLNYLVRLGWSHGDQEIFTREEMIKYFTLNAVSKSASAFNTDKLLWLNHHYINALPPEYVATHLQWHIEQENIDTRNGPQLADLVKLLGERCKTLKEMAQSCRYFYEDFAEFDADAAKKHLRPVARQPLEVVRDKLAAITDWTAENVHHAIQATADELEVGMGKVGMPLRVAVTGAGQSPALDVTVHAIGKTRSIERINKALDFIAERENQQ
T1 sequence (P04805 whole entry): as above

`Nc1ncnc2c1ncn2[C@@H]1O[C@H](COS(=O)(=O)NC(=O)[C@@H](N)CCC(=O)O)[C@@H](O)[C@H]1O` [Glu-AMS, 5’-O-[N-(L-glutamyl)sulfamoyl]adenosine] showed a Kd ([1]; K d aa-AMP aaRS, in the presence of tRNA^Glu) of 7 nM, a Kd ([1]; Kd (dissociation constant), single ITC run, tRNA^Glu 5.3 µM, 303 K, [ligand] 45 µM, [GluRS] 2.636 µM) of 5.49 ± 1.35 nM and a Kd ([1]; Kd (dissociation constant), single ITC run, tRNA^Glu 10.6 µM, 303 K, [ligand] 90 µM, [GluRS] 5.792 µM) of 8.96 ± 2.26 nM. The “-TΔSb” value [1, 4] was -2908 ± 33, the “n (stoichiometry coefficient)” value [1, 4] was 1.004 ± 0.006 and the “ΔGb (reaction energy)” value [1, 4] was -11.452 kcal/mol. For the same molecule, the “ΔHb (reaction enthalpy)” value [1, 4] was -8.537 ± 0.097 kcal/mol, the “ΔSb (reaction entropy)” value [1, 4] was 9.596 ± 0.11 cal/mol·K and the “-TΔSb” value [1, 5] was -3548 ± 38. For the same molecule, the “n (stoichiometry coefficient)” value [1, 5] was 1.000 ± 0.006, the “ΔGb (reaction energy)” value [1, 5] was -11.156 kcal/mol and the “ΔHb (reaction enthalpy)” value [1, 5] was -7.61 ± 0.081 kcal/mol. For the same molecule, the “ΔSb (reaction entropy)” value [1, 5] was 11.71 ± 0.12 cal/mol·K, the “-TΔSb” value [1, 6] was -3.186 ± 0.025 kcal/mol and the “n (stoichiometry coefficient)” value [1, 6] was 1.0018 ± 0.0041. For the same molecule, the “ΔHb (reaction enthalpy)” value [1, 6] was -7.99 ± 0.062 kcal/mol, the “ΔSb (reaction entropy)” value [1, 6] was 10.5 cal/mol·K and 10.52 ± 0.08 cal/mol·K and the “fold decrease of the dissociation constant Kd in the presence of tRNA^Glu” value ([1]; with versus without tRNA^Glu) was 50 fold. The “free energy of binding difference observed in the presence of tRNA^Glu” value ([1]; with versus without tRNA^Glu, 30°C) was “about 2.2 kcal/mol”, the Kd [2, 7] was 478 ± 86 nM and the Kd [2, 8] was 987 ± 190 nM. The “-TΔSb” value [2, 7] was -3875 ± 242, the “n (stoichiometry coefficient)” value [2, 7] was 0.9925 ± 0.048 and the “ΔGb (reaction energy)” value [2, 7] was -8.762 kcal/mol. The “ΔHb (reaction enthalpy)” value [2, 7] was -4.882 ± 0.305 kcal/mol, the “ΔSb (reaction entropy)” value [2, 7] was 12.79 ± 0.80 cal/mol·K and the “-TΔSb” value [2, 8] was -1658 ± 172. The “n (stoichiometry coefficient)” value [2, 8] was 0.9835 ± 0.0809, the “ΔGb (reaction energy)” value [2, 8] was -8.326 kcal/mol and the “ΔHb (reaction enthalpy)” value [2, 8] was -6.657 ± 0.689 kcal/mol. The “ΔSb (reaction entropy)” value [2, 8] was 5.472 ± 0.57 cal/mol·K, the “affinity of GluRS for Glu-AMS in the presence of the non-cognate tRNA^Phe” value ([2]; versus absence of tRNA) was “not altered” and the “ΔGb (reaction energy)” value ([2]; with S. cerevisiae tRNA^Phe, 30°C, simple average, ΔGb = -RT Ln Kb) was -8.544 ± 0.309 kcal/mol. For the same molecule, the “-TΔSb” value [2, 9] was -2.398 ± 0.14 kcal/mol, the “n (stoichiometry coefficient)” value [2, 9] was 0.9902 ± 0.0410 and the “ΔHb (reaction enthalpy)” value [2, 9] was -5.173 ± 0.279 kcal/mol. For the same molecule, the “ΔSb (reaction entropy)” value [2, 9] was 7.92 ± 0.46 cal/mol·K and the Ki [3] was 2.8 nM.
